Laboratory results published in ChEMBL document CHEMBL1135085, “Potent P1' biphenylmethyl substituted aggrecanase inhibitors” (Bioorg Med Chem Lett, 2002).
pIC50, pKi: −log10 of the molar value.

Legend:
[1] = Inhibitory activity against aggrecanase was determined
Interstitial collagenase = target: T1, Interstitial collagenase (Homo sapiens, UniProt P03956); experiment: Binding affinity for interstitial collagenase (MMP-1)
T1 sequence (P03956 whole entry): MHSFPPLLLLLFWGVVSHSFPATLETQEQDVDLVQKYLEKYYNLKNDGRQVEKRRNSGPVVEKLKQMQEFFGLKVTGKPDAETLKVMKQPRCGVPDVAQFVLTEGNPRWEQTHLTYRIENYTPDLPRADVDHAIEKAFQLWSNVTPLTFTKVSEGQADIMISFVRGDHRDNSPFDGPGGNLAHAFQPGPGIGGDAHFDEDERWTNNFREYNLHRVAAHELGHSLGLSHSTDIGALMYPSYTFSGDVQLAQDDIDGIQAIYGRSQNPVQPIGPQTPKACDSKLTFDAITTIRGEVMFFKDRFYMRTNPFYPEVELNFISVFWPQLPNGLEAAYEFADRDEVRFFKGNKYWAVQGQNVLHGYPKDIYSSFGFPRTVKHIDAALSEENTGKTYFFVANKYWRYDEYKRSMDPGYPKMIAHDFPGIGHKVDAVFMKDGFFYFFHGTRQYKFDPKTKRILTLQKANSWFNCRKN

[2] = target: 72 kDa type IV collagenase (Homo sapiens, UniProt P08253); experiment: Binding affinity for human gelatinase A (MMP-2)
[3] = target: Matrix metalloproteinase-9 (Homo sapiens, UniProt P14780); experiment: Binding affinity for human gelatinase B (MMP-9)
Sequence of Matrix metalloproteinase-9 (P14780 whole entry): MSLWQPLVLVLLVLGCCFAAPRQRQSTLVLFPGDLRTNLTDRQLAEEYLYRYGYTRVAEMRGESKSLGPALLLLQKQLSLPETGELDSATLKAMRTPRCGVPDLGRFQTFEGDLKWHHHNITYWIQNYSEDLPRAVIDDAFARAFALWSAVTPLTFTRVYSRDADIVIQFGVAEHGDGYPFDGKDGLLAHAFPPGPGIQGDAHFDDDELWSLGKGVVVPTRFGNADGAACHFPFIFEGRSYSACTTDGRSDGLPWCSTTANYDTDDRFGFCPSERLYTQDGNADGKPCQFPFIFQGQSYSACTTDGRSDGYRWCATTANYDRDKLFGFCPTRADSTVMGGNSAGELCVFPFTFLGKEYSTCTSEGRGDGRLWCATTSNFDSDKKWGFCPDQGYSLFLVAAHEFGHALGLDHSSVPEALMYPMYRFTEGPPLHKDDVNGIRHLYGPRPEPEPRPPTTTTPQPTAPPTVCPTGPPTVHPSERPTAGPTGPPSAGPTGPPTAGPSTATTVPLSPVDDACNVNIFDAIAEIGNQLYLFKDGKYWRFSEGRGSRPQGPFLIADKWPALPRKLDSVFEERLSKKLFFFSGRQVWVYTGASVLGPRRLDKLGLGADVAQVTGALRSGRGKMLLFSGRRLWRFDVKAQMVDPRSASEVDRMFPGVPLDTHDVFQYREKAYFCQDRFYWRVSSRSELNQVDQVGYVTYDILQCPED

Sequence of 72 kDa type IV collagenase (P08253 whole entry): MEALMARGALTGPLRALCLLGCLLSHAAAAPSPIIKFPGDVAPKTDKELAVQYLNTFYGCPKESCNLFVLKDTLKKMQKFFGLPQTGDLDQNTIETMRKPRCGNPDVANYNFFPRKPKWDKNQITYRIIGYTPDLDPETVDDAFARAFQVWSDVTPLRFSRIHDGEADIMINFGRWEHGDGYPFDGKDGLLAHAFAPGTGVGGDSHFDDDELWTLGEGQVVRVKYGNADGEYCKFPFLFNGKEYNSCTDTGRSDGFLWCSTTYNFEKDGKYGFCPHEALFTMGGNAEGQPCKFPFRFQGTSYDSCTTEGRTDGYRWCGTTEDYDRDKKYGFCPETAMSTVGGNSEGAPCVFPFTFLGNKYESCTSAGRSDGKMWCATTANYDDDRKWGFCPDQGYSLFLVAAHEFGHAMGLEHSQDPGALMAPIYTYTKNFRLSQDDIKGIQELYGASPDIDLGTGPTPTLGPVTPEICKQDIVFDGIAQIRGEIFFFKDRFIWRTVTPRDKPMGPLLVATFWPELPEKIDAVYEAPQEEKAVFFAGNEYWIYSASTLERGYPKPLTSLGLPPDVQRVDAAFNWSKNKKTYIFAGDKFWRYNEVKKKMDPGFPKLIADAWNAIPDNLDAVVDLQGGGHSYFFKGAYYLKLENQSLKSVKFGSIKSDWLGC

Structure (SMILES) | pIC50 [1] | pKi (Interstitial collagenase) | pKi [2] | pKi [3]
Cc1ccccc1-c1ccc(C[C@H](CC(=O)NO)C(=O)N[C@H]2c3ccccc3C[C@H]2O)cc1 | 7.94 | 5.39 | > 8.55 | 8.38
O=C(C[C@@H](Cc1ccc(-c2ccccc2CO)cc1)C(=O)N[C@H]1c2ccccc2C[C@H]1O)NO | 6.84 | < 5.30 | 6.30 | < 5.70
O=C(C[C@@H](Cc1ccc(-c2ccccc2-c2nn[nH]n2)cc1)C(=O)N[C@H]1c2ccccc2C[C@H]1O)NO | 6.62 | < 5.30 | 5.95 | 6.56
O=C(C[C@@H](Cc1ccc(-c2ccccc2Cl)cc1)C(=O)N[C@H]1c2ccccc2C[C@H]1O)NO | 7.49 | < 5.30 | 7.57 | 6.82
O=C(C[C@@H](Cc1ccc(-c2ccc3c(c2)OCO3)cc1)C(=O)N[C@H]1c2ccccc2C[C@H]1O)NO | 8.82 | 4.89 | 7.37 | 6.51
CS(=O)(=O)Nc1cccc(-c2ccc(C[C@H](CC(=O)NO)C(=O)N[C@H]3c4ccccc4C[C@H]3O)cc2)c1 | 8.82 | – | – | –
O=C(C[C@@H](Cc1cccc(O)c1)C(=O)N[C@H]1c2ccccc2C[C@H]1O)NO | 7.19 | – | – | –

The remaining lines, values ahead:

pIC50 [1] | pKi (Interstitial collagenase) | pKi [2] | pKi [3] | Structure (SMILES)
6.67 | – | – | – | CC(C)c1cccc(-c2ccc(C[C@H](CC(=O)NO)C(=O)N[C@H]3c4ccccc4C[C@H]3O)cc2)c1
7.94 | < 5.30 | 7.41 | 5.96 | Cc1cccc(-c2ccc(C[C@H](CC(=O)NO)C(=O)N[C@H]3c4ccccc4C[C@H]3O)cc2)c1
8.26 | – | – | – | O=C(C[C@@H](Cc1ccc(-c2cccc([N+](=O)[O-])c2)cc1)C(=O)N[C@H]1c2ccccc2C[C@H]1O)NO
8.70 | – | – | – | O=C(C[C@@H](Cc1ccc(-c2cccc(F)c2)cc1)C(=O)N[C@H]1c2ccccc2C[C@H]1O)NO
8.43 | < 5.30 | > 8.55 | 8.55 | COc1cccc(-c2ccc(C[C@H](CC(=O)NO)C(=O)N[C@H]3c4ccccc4C[C@H]3O)cc2)c1
8.01 | < 5.30 | > 9.00 | 8.27 | O=C(C[C@@H](Cc1ccc(-c2ccccc2)cc1)C(=O)N[C@H]1c2ccccc2C[C@H]1O)NO
8.47 | – | – | – | COc1ccccc1-c1ccc(C[C@H](CC(=O)NO)C(=O)N[C@H]2c3ccccc3C[C@H]2O)cc1
